Results reported in patent US20240376094A2, “SELECTIVE BCL-XL PROTAC COMPOUNDS AND METHODS OF USE” (Les Laboratoires Servier, priority 2021, published 2024).

Columns and labels:
[1] = tested on: COR-L105; assay: CellTiter-Glo proliferation assay, COR-L105; assay type: cell-based; conditions: Homo sapiens, COR-L105, 120 h, COR-L105, 5 days; for Emax: read-out: COR-L105 Span (max)
How it was run: (§1)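 Both lines grown in RPMI-1640 + 10% FBS. COR-L105 plated flat at 1,000 cells/well overnight; NCI-H1650 grown as spheroids, 3,000 cells/well, 72 h. Compounds at 0.508 nM-10 μM final for 5 days, 37° C. ATP read by CellTiter-Glo (3D version for spheroids); IC50 from variable-slope fit normalized to untreated cells.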

[2] = tested on: NCI-H1650; assay: CellTiter-Glo 3D proliferation assay, NCI-H1650 spheroids; assay type: cell-based; conditions: Homo sapiens, NCI-H1650, 120 h, 5 days; for Emax: read-out: NCI-H1650 Span (Amax)
How it was run: as §1

Row | SMILES | IC50 [1] [nM] | Emax [1] [%] | IC50 [2] [nM] | Emax [2] [%]
1 | Cc1ncsc1-c1ccc(CNC(=O)[C@@H]2C[C@@H](O)CN2C(=O)[C@@H](NC(=O)CCCCCCC(=O)N2CCN(CC#Cc3ccc(OCCCc4sc(N5CCCc6c5nnc(Nc5nc7ccccc7s5)c6C)nc4C(=O)O)c(F)c3)CC2)C(C)(C)C)cc1 [Example 33, 2-(3-(benzo[d]thiazol-2-ylamino)-4-methyl-6,7-dihydropyrido [2,3-c]pyridazin-8(5H)-yl)-5-(3-(2-fluoro-4-(3-(4-(8-(((S)-1-((2S,4R)-4-hydroxy-2-((4-(4-methylthiazol-5-yl)benzyl)carbamoyl)pyrrolidin-1-yl)-3,3-dimethyl-1-oxobutan-2-yl)amino)-8-oxooctanoyl)piperazin-1-yl)prop-1-yn-1-yl)phenoxy)propyl) thiazole-4-carboxylic acid] | 93.7 | 76.4 | 8.06 | 89.1
2 | Cc1ncsc1-c1ccc([C@H](C)NC(=O)[C@@H]2C[C@@H](O)CN2C(=O)[C@@H](NC(=O)CCCC(=O)N2CCN(CC#Cc3ccc(OCCCc4sc(N5CCCc6c5nnc(Nc5nc7ccccc7s5)c6C)nc4C(=O)O)c(F)c3)CC2)C(C)(C)C)cc1 [Example 35, 2-(3-(benzo[d]thiazol-2-ylamino)-4-methyl-6,7-dihydropyrido [2,3-c]pyridazin-8(5H)-yl)-5-(3-(2-fluoro-4-(3-(4-(5-(((S)-1-((2S,4R)-4-hydroxy-2-(((S)-1-(4-(4-methylthiazol-5-yl)phenyl)ethyl)carbamoyl)pyrrolidin-1-yl)-3,3-dimethyl-1-oxobutan-2-yl)amino)-5-oxopentanoyl)piperazin-1-yl)prop-1-yn-1-yl)phenoxy)propyl)thiazole-4-carboxylic acid] | 90.2 | 87.9 | 7.7 | 88.5
3 | Cc1ncsc1-c1ccc([C@H](C)NC(=O)[C@@H]2C[C@@H](O)CN2C(=O)[C@@H](NC(=O)CC23CC4CC(C2)CC(CC(=O)N2CCN(CC#Cc5ccc(OCCCc6sc(N7CCCc8c7nnc(Nc7nc9ccccc9s7)c8C)nc6C(=O)O)c(F)c5)CC2)(C4)C3)C(C)(C)C)cc1 [Example 42, 2-(3-(benzo[d]thiazol-2-ylamino)-4-methyl-6,7-dihydropyrido [2,3-c]pyridazin-8(5H)-yl)-5-(3-(2-fluoro-4-(3-(4-(2-((3S,5R)-3-(2-(((S)-1-((2S,4R)-4-hydroxy-2-(((S)-1-(4-(4-methylthiazol-5-yl)phenyl)ethyl)carbamoyl)pyrrolidin-1-yl)-3,3-dimethyl-1-oxobutan-2-yl)amino)-2-oxoethyl)adamantan-1-yl)acetyl)piperazin-1-yl)prop-1-yn-1-yl)phenoxy)propyl)thiazole-4-carboxylic acid] | 290 | 91.8 | 3.4 | 137
4 | Cc1ncsc1-c1ccc([C@H](C)NC(=O)[C@@H]2C[C@@H](O)CN2C(=O)[C@@H](NC(=O)CCCCCCCCCCC(=O)N2CCN(CC#Cc3ccc(OCCCc4sc(N5CCCc6c5nnc(Nc5nc7ccccc7s5)c6C)nc4C(=O)O)c(F)c3)CC2)C(C)(C)C)cc1 [Example 46, 2-(3-(benzo[d]thiazol-2-ylamino)-4-methyl-6,7-dihydropyrido [2,3-c]pyridazin-8(5H)-yl)-5-(3-(2-fluoro-4-(3-(4-(12-(((S)-1-((2S,4R)-4-hydroxy-2-(((S)-1-(4-(4-methylthiazol-5-yl)phenyl)ethyl)carbamoyl)pyrrolidin-1-yl)-3,3-dimethyl-1-oxobutan-2-yl)amino)-12-oxododecanoyl)piperazin-1-yl)prop-1-yn-1-yl)phenoxy)propyl)thiazole-4-carboxylic acid] | 163 | 101 | 4.91 | 83.2
